The values below come from patent publication US11726079B2, “Lighting systems and methods of using lighting systems for in vitro potency assay for Photofrin” (Concordia Laboratories, Inc., priority 2012, dated 2023).

“And” between values parts separate entries of the source, which are not always exact repeats. Equal entries are not always repeated.

Usually viability stands for a read-out of living cells in per cent, often relative to untreated cells.

The test system of data set [1] is A549 human lung carcinoma cells. The experiment in a line: Photofrin® dose response of irradiated A549 cells with MTT as the endpoint. The class given is cell-based. The method, then:
XTT and MTT are two types of formazan dyes that are used to measure mitochondrial function as a surrogate for cell viability. A Photofrin® dose response curve is performed with either XTT or MTT as the endpoint. The results obtained with these two endpoints differ by approximately 15%, but each produces consistent values (see Table 2, below). As the potency of an unknown will be determined with respect to a Reference Lot, the absolute EC50 value is not critical. Given that the use of the MTT dye requires an additional solubilization step, XTT is selected for use in this assay.

Data set [2] relates to A549 cells. The experiment in a line: Homogeneity of irradiation: every well of an A549 plate treated equally with Photofrin®. Particulars: Photofrin® at 1.5 μg/mL; wells in the middle of the plate; relative to a second plate of cells without drug; before lengthening the light path from 54 cm to 95.5 cm. The class given is cell-based, human. From the text:
The Xenon arc lamp produces a bright, broad wavelength irradiance beam that when collimated still retains a bright center. This lack of homogeneity in the intensity of the light beam has to be minimized in order to achieve even irradiation over the area of the 96-well plate. For this purpose, two plano-convex lenses are introduced into the light path to approximate a Kohler illumination (FIG. 1). After an initial dosing ranging study of Photofrin® (data not shown), each well of an assay plate containing A549 cells is treated equally with Photofrin® at 1.5 μg/mL to assess homogeneity of the irradiation. For this experiment, the percent viability is calculated relative to a second plate of cells without drug. […] To address the inhomogeneity in irradiance, the distance from the final bandpass filter to the sample is raised approximately 2-fold from 54 cm to 95.5 cm while the first surface of the plano-convex lenses is maintained at 13.6 cm from the 650 nm cut-off filter. By increasing the length of the light path, the center zone of irradiance is broadened to cover the area of the entire plate (FIG. 13). As the light path is lengthened, the overall irradiance is decreased, necessitating the use of a higher Photofrin® concentration.

As to porfimer sodium [Photofrin®], the EC50-MTT in data set [1] (experiment PIN-009, in µg/mL) is 8.28 and 8.11. This substance displayed an EC50-MTT, Mean in data set [1] (experiment PIN-009, mean) of 8.2 µg/mL. In addition, in data set [2], the viability was determined as 103%.
